Laboratory results published in patent publication US20030045564A1, “Saururus chinensis extract for prevention and treatment of neurodegenerative disease” (priority 2000, published 2003).

Experiments:
[1] = test system: NO content released from glutamate-insulted rat cortical cells; assay: Measurement of nitric oxide (nitrite in culture broth, Griess reagent); type: cell-based; settings: for Nitrite / Nitrite post-treatment: post-treatment; for Nitrite: control 75.5, glutamate-treated 145.7; for Nitrite post-treatment / Nitrite pre-treatment: control 70.5, glutamate-treated 165.9
Method: The content of nitrite isolated into culture broth from first cultured cortical cells was assayed by using Griess reagent by Dawson's method(Dawson V L, Brahbhatt H P, Mong J A and Dawson T M (1994) Expression of inducible nitric oxide synthase causes delayed neurotoxicity in primary neuronal-glial cortical cultures. Neuropharmacology 33: 1425-1430).

[2] = test system: catalase; assay: Effect on activity of antioxidant enzyme catalase; type: cell-based, rat; settings: data not shown
[3] = test system: glutamate-insulted rat cortical cells; assay: Neuroprotection against glutamate-induced neurotoxicity, cell viability by MTT assay in primary cultured cortical cells; type: cell-based; set-up: neuroprotective activity (in words): dose or concentration left out as unconfirmed
Method: Primary cultures of mixed cortical cells containing both neuron and glia were prepared from fetal rats as described previously (Kim Y C, Kim S R, Markelonis G J and Oh T H (1998) Ginsenosides Rb1 and Rg3 protect cultured rat cortical cells from glutamate-induced neurodegeneration. J. Neurosci. Res. 53: 426-432).
The cortical cells were plated onto collagen-coated dishes at a density of 1×10^6 cells/ml. The cultured cells were grown in DMEM supplemented with 10% heat-inactivated fetal calf serum, 1 mM sodium pyruvate, 100 IU/ml pecicillin and 100 μg/ml streptomycin at 37° C. in a humidified atmosphere of 95% air/5% CO2. cultures were allowed to mature for 2 weeks before being used for experiments.
Total extract of S. chinensis, fraction and isolated materials were dissolved in DMSO(within final culture concentration, 0.1%) and diluted with distilled water and by passing the solution through Milliporemembrane(0.22 μm, Millex-GV, USA) to make sterile state. The solution was cultured by differentiating the concentration and dosed to neuron cells.
To culture broth of the cortical cells during being cultured, MTT(5 mg/ml) was added by 10% of the culture broth. The broth was cultured for more 3 hours. The formed formazan was dissolved by DMSO and was assayed absorption at 540 nm((Mosmann T (1983) Rapid colorimetric assay for cellular growth and survival: Application to proliferation and cytotoxicity assays. J. Immuno. Methods 65: 55-61)
The neuroprotective activity of these two aristolactam alkaloids against glutamate-induced toxicity was initially evaluated by a timed exposure to alkaloids before or after excitotoxic challenge. Some cultures were pretreated with alkaloids for one hr before a brief exposure (30 min) to glutamate, washed and maintained in DMEM for 24 hr in the absence of alkaloids (pre-treatment) (Table 3). Also, cultures were first exposed to glutamate for 30 min, washed and maintained in DMEM for 24 hr in the presence of alkaloids (post-treatment) (Table 4).
Cortical cells directly isolated from rat fetal were cultured for 14 days. The samples to be tested were treated at different concentrations to cultured cells. After one hour, neurotoxicity was induced by treating 100 μM of glutamate. After 24 hours, the survival cell rate were measured by MTT assay to determine neuroprotective activity of the samples.
Control is the value for primary cultures of rat cortical cells. Control value for MTT was 1.03±0.08 optical density (OD). Glutamate-treated is the value for primary cultures of rat cortical cells exposed to glutamate for 30 min. Glutamate-treated value for MTT was 0.58±0.02 OD.
Viability is calculated as 100×(OD of sample treated−OD of Glutamate-treated)/(OD of control−OD of Glutamate-treated).

[4] = test system: GSH-px; assay: Effect on activity of antioxidant enzyme GSH-px; type: cell-based, rat; settings: data not shown
[5] = test system: SOD; assay: Effect on activity of antioxidant enzyme SOD; type: cell-based, rat; settings: data not shown
[6] = test system: glutamate-insulted rat cortical cells; settings: previously patented neuroprotectant, comparison; cited from earlier work
[7] = test system: [Ca2+]i in glutamate-insulted rat cortical cells; assay: Measurement of Ca2+ concentration in cells (Fura-2 AM); type: cell-based; settings: for [Ca2+]i: pre-treatment, control 75.5, glutamate-treated 425.4
[8] = test system: peroxide content on glutamate-insulted rat cortical cells; assay: Cellular peroxide content in glutamate-injured cortical neurons; type: cell-based
[9] = both pre- and post-treatment paradigms

Which results are given for `N=C(NCCC[C@H](N)C(=O)O)N[N+](=O)[O-]` [N^ω-nitro-L-arginine, reference compound]?
Nitrite ([1]; 1.0 μM): 103.9 ± 3.5 nM; Nitrite ([1]; 10.0 μM): 88.5 ± 4.1 nM; Nitrite ([1]; 100.0 μM): 109.7 ± 1.9 nM

What does the source list for `COc1cc2c3c(cc4ccccc4c3c1OC)NC2=O` [aristolactam BII, 10-amino-3,4-methoxy-3-hydroxy-phenanthrene-1-carboxylic acid lactam]?
protective effect on activity of catalase (in words) [2]: no significant protective effects; Neuroprotection (% protection against glutamate-induced neurotoxicity) ([3]; post-treatment (right after 30 min glutamate insult), 0.1 μM): 58.5 ± 5.8 %; Neuroprotection (% protection against glutamate-induced neurotoxicity) ([3]; post-treatment (right after 30 min glutamate insult), 1.0 μM): 68.4 ± 3.5 %; Neuroprotection (% protection against glutamate-induced neurotoxicity) ([3]; post-treatment (right after 30 min glutamate insult), 10.0 μM): 47.8 ± 2.9 %; Neuroprotection (% protection against glutamate-induced neurotoxicity) ([3]; pre-treatment (1 hr prior to glutamate insult), 0.1 μM): 0.0 ± 7.8%; Neuroprotection (% protection against glutamate-induced neurotoxicity) ([3]; pre-treatment (1 hr prior to glutamate insult), 1.0 μM): 0.0 ± 3.2%; Neuroprotection (% protection against glutamate-induced neurotoxicity) ([3]; pre-treatment (1 hr prior to glutamate insult), 10.0 μM): 32.2 ± 0.8 %; protection from glutamate-induced neurotoxicity (in words) ([3]; pre-treatment paradigm): did not significantly protect; neuroprotective activity (in words) ([3]; throughout treatment paradigm): significant neuroprotective activity; Neuroprotection (% protection against glutamate-induced neurotoxicity) ([3]; throughout treatment, 0.1 μM): no effect; Neuroprotection (% protection against glutamate-induced neurotoxicity) ([3]; throughout treatment, 1.0 μM): 60.8 ± 2.1 %; Neuroprotection (% protection against glutamate-induced neurotoxicity) ([3]; throughout treatment, 10.0 μM): 52.2 ± 3.2 %; protective effect on activity of GSH-px (in words) [4]: no significant protective effects; Nitrite ([1]; 0.1 μM): 87.0 ± 0.8 nM; Nitrite ([1]; 1.0 μM): 86.8 ± 2.2 nM; Nitrite ([1]; 10.0 μM): 103.2 ± 1.2 nM; NO content in cultures treated with glutamate plus compound (in words) ([1]; versus glutamate alone): increased only slightly; protective effect on activity of SOD (in words) [5]: no significant protective effects

For `COc1ccc(/C=C/C(=O)O)cc1` [E-p-MCA, (E)-p-methoxycinnamic acid], which “protective activity by treatment paradigm (in words)” value [6] is on record?
Its value is “significant protective activity only in pre-treatment paradigm”.

With saurolactam-3-O-(E)-p-methoxycinnamate as the compound, how does the “block of increase of intracellular Ca2+ induced by excess glutamate (in words)” value [7] read?
The value was “successfully block”.

And the “[Ca2+]i” value ([7]; 0.1 μM)?
Its value is 233.3 ± 14.9 nM.

And the “[Ca2+]i” value ([7]; 1.0 μM)?
Its value is 145.8 ± 26.3 nM.

And the “[Ca2+]i” value ([7]; 10.0 μM)?
The value was 96.1 ± 4.1 nM.

What about the “Neuroprotection (% protection against glutamate-induced neurotoxicity)” value ([3]; Table 6, pre-treatment, 0.1 μM) of the same compound?
The value was 29.8 ± 8.2 %.

What about the “Neuroprotection (% protection against glutamate-induced neurotoxicity)” value ([3]; Table 6, pre-treatment, 1.0 μM) of the same compound?
Its value is 67.2 ± 9.6 %.

What about the “Neuroprotection (% protection against glutamate-induced neurotoxicity)” value ([3]; Table 6, pre-treatment, 10.0 μM) of the same compound?
Its value is 80.6 ± 9.5 %.

And the “Neuroprotection (% protection against glutamate-induced neurotoxicity)” value ([3]; Table 7, post-treatment, 0.1 μM)?
Its value is 62.1 ± 1.8 %.

What about the “Neuroprotection (% protection against glutamate-induced neurotoxicity)” value ([3]; Table 7, post-treatment, 1.0 μM) of the same compound?
The value was 70.3 ± 3.2 %.

What about the “Neuroprotection (% protection against glutamate-induced neurotoxicity)” value ([3]; Table 7, post-treatment, 10.0 μM) of the same compound?
Its value is 48.2 ± 1.5 %.

And the “neuroprotective activity on glutamate-induced neurotoxicity (in words)” value [3, 9]?
Its value is “significant neuroprotective activity”.

What about the “block of NO synthesis (in words)” value [1, 9] of the same compound?
Its value is “significantly block”.

And the Nitrite post-treatment ([1]; 0.1 μM)?
The Nitrite post-treatment was 143.6 ± 5.7 nM.

What about the Nitrite post-treatment ([1]; 1.0 μM) of the same compound?
Its Nitrite post-treatment is 97.5 ± 26.3 nM.

And the Nitrite post-treatment ([1]; 10.0 μM)?
The Nitrite post-treatment was 118.1 ± 2.1 nM.

What about the Nitrite pre-treatment ([1]; 0.1 μM) of the same compound?
The Nitrite pre-treatment was 125.0 ± 6.8 nM.

And the Nitrite pre-treatment ([1]; 1.0 μM)?
Its Nitrite pre-treatment is 74.8 ± 6.5 nM.

What about the Nitrite pre-treatment ([1]; 10.0 μM) of the same compound?
Its Nitrite pre-treatment is 71.4 ± 2.1 nM.

And the “cellular peroxide level (in words)” value [8]?
Its value is “reduced”.
